From patent US20240158446A1, “CYCLIC COMPOUND HAVING SELECTIVE INHIBITORY ACTION ON KRAS OVER HRAS AND NRAS” (CHUGAI SEIYAKU KABUSHIKI KAISHA, priority 2021, published 2024)

Tests used:
[1] = molecular target: GDP-bound NRAS wild-type protein (Homo sapiens, UniProt P01111); test: Binding to NRAS by surface plasmon resonance (SPR), Single Cycle Kinetics; settings: SPR KD ratio NRAS/KRAS, class symbols
[2] = molecular target: GDP-bound HRAS wild-type protein (Homo sapiens, UniProt P01112); test: Binding to HRAS by surface plasmon resonance (SPR), Single Cycle Kinetics; settings: SPR KD ratio HRAS/KRAS, class symbols
[3] = molecular target: GDP-bound KRAS wild-type protein (Homo sapiens, UniProt P01116); test: Binding to KRAS by surface plasmon resonance (SPR), Single Cycle Kinetics; settings: SPR Single Cycle Kinetics, GDP-bound KRAS wild-type protein, 1:1 binding model; read-out: KRAS KD
[4] = tested on: human lung cancer strain NCI-H441;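 further: cell proliferation inhibition after four days measured by CellTiter-Glo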

Chain of GDP-bound KRAS wild-type protein (P01116 whole entry): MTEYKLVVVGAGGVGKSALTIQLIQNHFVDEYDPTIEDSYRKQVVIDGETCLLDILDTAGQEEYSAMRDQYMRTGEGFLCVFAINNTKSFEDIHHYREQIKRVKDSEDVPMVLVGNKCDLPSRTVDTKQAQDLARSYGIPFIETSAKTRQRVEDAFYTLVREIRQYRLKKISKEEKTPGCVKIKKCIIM
Chain of GDP-bound NRAS wild-type protein (P01111 whole entry): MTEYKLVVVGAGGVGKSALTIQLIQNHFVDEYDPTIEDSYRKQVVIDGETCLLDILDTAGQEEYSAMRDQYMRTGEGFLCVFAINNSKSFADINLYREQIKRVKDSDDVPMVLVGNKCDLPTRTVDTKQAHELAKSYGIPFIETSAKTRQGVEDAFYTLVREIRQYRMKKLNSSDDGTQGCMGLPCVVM
Chain of GDP-bound HRAS wild-type protein (P01112 whole entry): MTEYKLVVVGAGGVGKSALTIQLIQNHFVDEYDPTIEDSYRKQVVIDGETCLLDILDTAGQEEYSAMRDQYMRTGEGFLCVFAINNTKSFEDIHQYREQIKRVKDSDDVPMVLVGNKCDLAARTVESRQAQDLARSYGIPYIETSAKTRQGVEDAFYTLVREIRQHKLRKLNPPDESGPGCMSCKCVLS

Row | SMILES | NRAS/KRAS (ratio of KD value with respect to GDP-bound NRAS wild-type protein to KD value with respect to KRAS) [1] | HRAS/KRAS (ratio of KD value with respect to GDP-bound HRAS wild-type protein to KD value with respect to KRAS) [2] | Kd [3] | IC50 [4]
1 | CCC[C@H]1C(=O)N[C@@H](CC(C)C)C(=O)N2C[C@@H](OC)C[C@H]2C(=O)N(C)[C@H]2C/C=C\CCN(C2=O)[C@@H](Cc2ccc(C)cc2)C(=O)N(C)CC(=O)N[C@@H](CCc2ccc(C(F)(F)F)c(OC)c2)C(=O)N2C[C@H](OCC)C[C@H]2C(=O)NC2(CC(C)(C)C2)C(=O)N(C)[C@@H](C2CCCC2)C(=O)N(C)[C@H](C(=O)N(C)C)CC(=O)N1C [PP2554] | A (a compound having 10 or more and less than 20 is denoted as A) | B (a compound having 3 or more and less than 10 is denoted as B) | 5.6 nM | 271 nM
2 | CCC[C@H]1C(=O)N[C@@H](CC(C)C)C(=O)N2C[C@@H](OC)C[C@H]2C(=O)N(C)[C@H]2C/C=C\CCN(C2=O)[C@@H](Cc2ccc(C)cc2)C(=O)N(C)CC(=O)N[C@@H](CCc2ccc(C(F)(F)F)c(Cl)c2)C(=O)N2C[C@H](OCC)C[C@H]2C(=O)NC2(CC(C)(C)C2)C(=O)N(C)[C@@H](C2CCCC2)C(=O)N(C)[C@H](C(=O)N(C)C)CC(=O)N1C [PP2555] | A (a compound having 10 or more and less than 20 is denoted as A) | B (a compound having 3 or more and less than 10 is denoted as B) | 4.1 nM | 212 nM
3 | CCC[C@H]1C(=O)N[C@@H]([C@@H](C)CC)C(=O)N2C[C@@H](OC)C[C@H]2C(=O)N(C)[C@H]2C/C=C\CCN(C2=O)[C@@H](Cc2ccc(C)cc2)C(=O)N(C)CC(=O)N[C@@H](CCc2cc(F)c(C(F)(F)F)c(F)c2)C(=O)N2C[C@H](OCC)C[C@H]2C(=O)NC2(CC(C)(C)C2)C(=O)N(C)[C@@H](C2CCCC2)C(=O)N(C)[C@H](C(=O)N(C)C)CC(=O)N1C [PP2556] | A (a compound having 10 or more and less than 20 is denoted as A) | B (a compound having 3 or more and less than 10 is denoted as B) | 0.21 nM | 9.4 nM
4 | CCC[C@H]1C(=O)N[C@@H]([C@@H](C)CC)C(=O)N2C[C@@H](OC)C[C@H]2C(=O)N(C)[C@H]2C/C=C\CCN(C2=O)[C@@H](Cc2ccc(C)cc2)C(=O)N(C)CC(=O)N[C@@H](CCc2ccc(C(F)(F)F)c(OC)c2)C(=O)N2C[C@H](OCC)C[C@H]2C(=O)NC2(CC(C)(C)C2)C(=O)N(C)[C@@H](C2CCCC2)C(=O)N(C)[C@H](C(=O)N(C)C)CC(=O)N1C [PP2557] | A (a compound having 10 or more and less than 20 is denoted as A) | B (a compound having 3 or more and less than 10 is denoted as B) | 0.3 nM | 14.2 nM
5 | CCC[C@H]1C(=O)N[C@@H]([C@@H](C)CC)C(=O)N(C2CC2)CC(=O)N(C)[C@H]2C/C=C\CCN(C2=O)[C@@H](Cc2ccc(C)cc2)C(=O)N(C)CC(=O)N[C@@H](CCc2ccc(Cl)c(Cl)c2)C(=O)N2C[C@H](OCC)C[C@H]2C(=O)NC2(CC(C)(C)C2)C(=O)N(C)[C@@H](C2CCCC2)C(=O)N(C)[C@H](C(=O)N(C)C)CC(=O)N1C [PP2559] | A (a compound having 10 or more and less than 20 is denoted as A) | A (a compound having 10 or more and less than 20 is denoted as A) | 0.91 nM | 103 nM
6 | CCC[C@H]1C(=O)N[C@@H]([C@@H](C)CC)C(=O)N(C2CC2)CC(=O)N(C)[C@H]2C/C=C\CCN(C2=O)[C@@H](Cc2ccc(C)cc2)C(=O)N(C)CC(=O)N[C@@H](CCc2cc(F)c(C(F)(F)F)c(F)c2)C(=O)N2C[C@H](OCC)C[C@H]2C(=O)NC2(CC(C)(C)C2)C(=O)N(C)[C@@H](C(CC)CC)C(=O)N(C)[C@H](C(=O)N(C)C)CC(=O)N1C [PP2560] | AA (a compound having 20 or more is denoted as AA) | A (a compound having 10 or more and less than 20 is denoted as A) | 1 nM | 46.3 nM
7 | CCC[C@H]1C(=O)N[C@@H]([C@@H](C)CC)C(=O)N(C2CC2)CC(=O)N(C)[C@H]2C/C=C\CCN(C2=O)[C@@H](Cc2ccc(C)cc2)C(=O)N(C)CC(=O)N[C@@H](CCc2ccc(Cl)c(Cl)c2)C(=O)N2C[C@H](OCC)C[C@H]2C(=O)NC2(CC(C)(C)C2)C(=O)N(C)[C@@H](C(CC)CC)C(=O)N(C)[C@H](C(=O)N(C)C)CC(=O)N1C [PP2561] | AA (a compound having 20 or more is denoted as AA) | A (a compound having 10 or more and less than 20 is denoted as A) | 1.9 nM | 96.4 nM
8 | CCO[C@@H]1C[C@H]2C(=O)NC3(CC(C)(C)C3)C(=O)N(C)[C@@H](C3CCCC3)C(=O)N(C)[C@H](C(=O)N(C)C)CC(=O)N(C)[C@@H](COC)C(=O)N[C@@H]([C@@H](C)CC)C(=O)N(C3CC3)CC(=O)N(C)[C@H]3C/C=C\CCN(C3=O)[C@@H](CC3CCCCC3)C(=O)N(C)CC(=O)N[C@@H](CCc3cc(F)c(C(F)(F)F)c(F)c3)C(=O)N2C1 [PP2562] | B (a compound having 3 or more and less than 10 is denoted as B) | B (a compound having 3 or more and less than 10 is denoted as B) | 0.91 nM | 46.5 nM
9 | CCO[C@@H]1C[C@H]2C(=O)NC3(CC(C)(C)C3)C(=O)N(C)[C@@H](C3CCCC3)C(=O)N(C)[C@H](C(=O)N(C)C)CC(=O)N(C)[C@@H](COC)C(=O)N[C@@H]([C@@H](C)CC)C(=O)N(C3CC3)CC(=O)N(C)[C@H]3C/C=C\CCN(C3=O)[C@@H](CC3CCCCC3)C(=O)N(C)CC(=O)N[C@@H](CCc3ccc(Cl)c(Cl)c3)C(=O)N2C1 [PP2563] | A (a compound having 10 or more and less than 20 is denoted as A) | A (a compound having 10 or more and less than 20 is denoted as A) | 2.3 nM | 108 nM
10 | CCO[C@@H]1C[C@H]2C(=O)NC3(CC(C)(C)C3)C(=O)N(C)[C@@H](C(CC)CC)C(=O)N(C)[C@H](C(=O)N(C)C)CC(=O)N(C)[C@@H](COC)C(=O)N[C@@H]([C@@H](C)CC)C(=O)N(C3CC3)CC(=O)N(C)[C@H]3C/C=C\CCN(C3=O)[C@@H](CC3CCCCC3)C(=O)N(C)CC(=O)N[C@@H](CCc3cc(F)c(C(F)(F)F)c(F)c3)C(=O)N2C1 [PP2564] | A (a compound having 10 or more and less than 20 is denoted as A) | A (a compound having 10 or more and less than 20 is denoted as A) | 7.6 nM | 222 nM
11 | CCC[C@H]1C(=O)N[C@@H]([C@@H](C)CC)C(=O)N(C2CC2)CC(=O)N(C)[C@H]2C/C=C\CCN(C2=O)[C@@H](CC2CCC(F)(F)CC2)C(=O)N(C)CC(=O)N[C@@H](CCc2cc(F)c(C(F)(F)F)c(F)c2)C(=O)N2C[C@H](OCC)C[C@H]2C(=O)NC2(CC(C)(C)C2)C(=O)N(C)[C@@H](C2CCCC2)C(=O)N(C)[C@H](C(=O)N(C)C)CC(=O)N1C [PP2566] | A (a compound having 10 or more and less than 20 is denoted as A) | B (a compound having 3 or more and less than 10 is denoted as B) | 0.57 nM | 17.6 nM
12 | CCC[C@H]1C(=O)N[C@@H]([C@@H](C)CC)C(=O)N(C2CC2)CC(=O)N(C)[C@H]2C/C=C\CCN(C2=O)[C@@H](CC2CCC(F)(F)CC2)C(=O)N(C)CC(=O)N[C@@H](CCc2ccc(Cl)c(Cl)c2)C(=O)N2C[C@H](OCC)C[C@H]2C(=O)NC2(CC(C)(C)C2)C(=O)N(C)[C@@H](C2CCCC2)C(=O)N(C)[C@H](C(=O)N(C)C)CC(=O)N1C [PP2567] | A (a compound having 10 or more and less than 20 is denoted as A) | A (a compound having 10 or more and less than 20 is denoted as A) | 1.9 nM | 102 nM
13 | CCO[C@@H]1C[C@H]2C(=O)NC3(CC(C)(C)C3)C(=O)N(C)[C@@H](C(CC)CC)C(=O)N(C)[C@H](C(=O)N(C)C)CC(=O)N(C)[C@@H](COC)C(=O)N[C@@H]([C@@H](C)CC)C(=O)N(C3CC3)CC(=O)N(C)[C@H]3C/C=C\CCN(C3=O)[C@@H](CC3CCC(F)(F)CC3)C(=O)N(C)CC(=O)N[C@@H](CCc3cc(F)c(C(F)(F)F)c(F)c3)C(=O)N2C1 [PP2568] | A (a compound having 10 or more and less than 20 is denoted as A) | B (a compound having 3 or more and less than 10 is denoted as B) | 1.2 nM | 23.4 nM
14 | CCO[C@@H]1C[C@H]2C(=O)NC3(CC(C)(C)C3)C(=O)N(C)[C@@H](C(CC)CC)C(=O)N(C)[C@H](C(=O)N(C)C)CC(=O)N(C)[C@@H](COC)C(=O)N[C@@H]([C@@H](C)CC)C(=O)N(C3CC3)CC(=O)N(C)[C@H]3C/C=C\CCN(C3=O)[C@@H](CC3CCC(F)(F)CC3)C(=O)N(C)CC(=O)N[C@@H](CCc3ccc(Cl)c(Cl)c3)C(=O)N2C1 [PP2569] | AA (a compound having 20 or more is denoted as AA) | A (a compound having 10 or more and less than 20 is denoted as A) | 2.8 nM | 185 nM
